The numbers were not newly measured in patent US10695309B2 (Western New England University, priority 2017, dated 2020), which cites them from elsewhere.

For this data set the following is noted: for half-life: in vivo.

For orientation: half-life means the time needed for the level to fall by half in the phase considered. For the molecule `N[C@@H](Cc1cc(I)c(Oc2ccc(O)c(I)c2)c(I)c1)C(=O)O` [Formulation T3, Liothyronine], the half-life result is reported as “less than 2 days”. The bioavailability (reported) is listed as 69-99%. Turning to `N[C@@H](Cc1cc(I)c(Oc2cc(I)c(O)c(I)c2)c(I)c1)C(=O)O` [Formulation T4, levothyroxine], the half-life is 140 to 170 h.
